Laboratory results as given in patent US20110294901A1, “FINELY PULVERIZED PHARMACEUTICAL COMPOSITION” (priority 2009, published 2011).

Assays:
[1] = Particle size measurement with a particle size distribution measuring device (Microtruck X100); assay type: physicochemical
Protocol: Preferably, the particles of the drug contained in the composition according to the present invention have a cumulative 50% particle diameter of not more than 1.5 μm and a cumulative 90% particle diameter of not more than 3.0 μm. More preferably, the cumulative 50% particle diameter and the cumulative 90% particle diameter are not more than 1.0 μm and not more than 2.0 μm, respectively. In the present invention, when a cumulative curve is determined by presuming the total volume of a powder population, of which the particle size distribution is analyzed, to be 100%, the particle diameter of a point at which the cumulative curve is 50% and the particle diameter of a point at which the cumulative curve is 90% are “cumulative 50% particle diameter” and “cumulative 90% particle diameter” (μm), respectively.
The diameters of drug particles obtained by the grinding can be measured by a laser diffraction/scattering-type particle size distribution measuring machine. Specifically, for example, Microtruck (tradename) sold by NIKKISO Co., Ltd. is preferred. […]
The cumulative 50% particle diameter of bulk drug particles in the fine granules in Examples 4 and 5 and Comparative Examples 3 to 5 was measured with a particle size distribution measuring device (manufacturer: NIKKISO Co., Ltd., model: Mircotruck X100).

[2] = Dissolution test (1), paddle method, 1% aqueous polysorbate 80; assay type: physicochemical; settings: three hr after the start of the dissolution; 50 mg drug, 100 rpm, 900 mL 1% aqueous polysorbate 80
Protocol: A dissolution test was carried out for the suspension produced in Example 1 (grinding conditions 3) and a liquid obtained by suspending the ground bulk drug obtained in Comparative Example 1 in water.
Each of the suspensions in an amount corresponding to 50 mg of the 22β-methoxyolean-12-ene-3β,24(4β)-diol bulk drug was accurately weighed, and a test was carried out by a dissolution test method, second method (paddle method), specified in Japanese Pharmacopoeia, at a rotation speed of 100 rpm (rotation speed of paddle) using 900 mL of a 1% aqueous polysorbate 80 solution as a test solution. After 15 min, 30 min, 60 min, and 180 min from the start of dissolution, 5 mL of the test solution was collected and was filtered by a membrane filter having a pore diameter of 0.2 μm to give measurement samples. The samples were analyzed by high-performance liquid chromatography (manufacturer: Shimadzu Seisakusho Ltd., model:LC-10ATvp) to determine dissolution rate for each sample.

Compound	cumulative 50% particle diameter ([1]; bulk drug before grinding)	dissolution rate [2]	cumulative 50% particle diameter of the ground bulk drug ([1]; ground with jet mill at 0.54 MPa, dispersed in 0.01% aqueous sodium laurylsulfate solution)
CO[C@@H]1CC(C)(C)C[C@H]2C3=CC[C@@H]4[C@@]5(C)CC[C@H](O)[C@](C)(CO)[C@@H]5CC[C@@]4(C)[C@]3(C)CC[C@@]12C [22β-methoxyolean-12-ene-3β,24(4β)-diol]	about 50 μm		
CO[C@@H]1CC(C)(C)C[C@H]2C3=CC[C@@H]4[C@@]5(C)CC[C@H](O)[C@](C)(CO)[C@@H]5CC[C@@]4(C)[C@]3(C)CC[C@@]12C [Comparative Example 1, 22β-Methoxyolean-12-ene-3β, 24(4β)-diol]		10%	2.5 μm
